Source: article PMC12592418, “Therapeutic potential of red bean (phaseolus vulgaris) peptides: anticancer, antihypertension, and antioxidant activities” (Scientific Reports, 2025)
No end group written: not given here.

Legend:
[1] = tested on: CaCO2 cells; experiment: MTT cell viability assay, CaCO2; assay type: cell-based, human; conditions: synthetic peptide 100 µg/ml, 24 h, mean ± SD, n = 3
Method: (§1) CaCO2, HepG2, MCF-7, NCI-H460, SiHa, SW620, and Vero cells were obtained from the American Type Culture Collection (ATCC, Manassas, VA, USA). Cells were cultured in Dulbecco’s Modified Eagle’s Medium (DMEM; PAA, Pasching, Austria), supplemented with 10% (v/v) fetal bovine serum (Gibco, South America), 10 mM HEPES (HyClone, Utah, USA), 2 mM L-glutamine, and 100 U/mL penicillin and 100 µg/mL streptomycin. Cultures were maintained at 37 °C in a humidified atmosphere containing 5% CO₂.
(§2) The anticancer activity of protein hydrolysates and synthetic peptides against CaCO2, HepG2, MCF-7, NCI-H460, SiHa, SW620, and Vero cells were evaluated using the MTT assay. Cells were seeded into 96-well plates (Nunc™, Roskilde, Denmark) at a density of 2 × 10⁴ cells per well, and allowed to adhere. Following seeding, cells were treated with 100 µg/mL of protein hydrolysates or synthetic peptides for 24 h, while untreated cells served as controls. After 24 h, 20 µL of MTT solution (5 mg/mL; Sigma, St. Louis, MO, USA) was added to each well and incubated for an additional 3 h. The supernatant was then removed, and 100 µL of DMSO was added to each well to dissolve the formazan crystals. Optical density (OD) was measured at 540 nm using a microplate reader (Rayto RT-2100 C, China). Cell viability was calculated using the equation: (OD of treated cells/OD of untreated cells) × 100.
(§3) The IC50 values were calculated from a fitted semi-log response curve, plotting cell viability percentages against concentration. These values were determined using the AAT-Bioquest IC50 calculator (https://www.aatbio.com/tools/ic50-calculator).

[2] = tested on: HepG2 cells; experiment: MTT cell viability assay, HepG2; assay type: cell-based, human; conditions: synthetic peptide 100 µg/ml, 24 h, mean ± SD, n = 3
Method: as §1, §2, §3

[3] = tested on: MCF-7 cells; experiment: MTT cell viability assay, MCF-7; assay type: cell-based, human; conditions: synthetic peptide 100 µg/ml, 24 h, mean ± SD
Method: as §1, §2, §3

[4] = tested on: NCI-H460 cells; experiment: MTT cell viability assay, NCI-H460; assay type: cell-based, human; conditions: synthetic peptide 100 µg/ml, 24 h, mean ± SD
Method: as §1, §2, §3

[5] = tested on: SiHa cells; experiment: MTT cell viability assay, SiHa; assay type: cell-based, human; conditions: synthetic peptide 100 µg/ml, 24 h, mean ± SD, n = 3
Method: as §1, §2, §3

[6] = tested on: SW620 cells; experiment: MTT cell viability assay, SW620; assay type: cell-based, human; conditions: synthetic peptide 100 µg/ml, 24 h, mean ± SD
Method: as §1, §2, §3

[7] = tested on: Vero cells; experiment: MTT cell viability assay, Vero; assay type: cell-based, monkey; conditions: synthetic peptide 100 µg/ml, 24 h, mean ± SD, n = 3
Method: as §1, §2, §3

[8] = tested on: angiotensin-converting enzyme (ACE); experiment: ACE inhibitory activity assay (HHL substrate); assay type: biochemical; conditions: peptide 100 µg/ml, ACE 0.2 U/mL, 5 mM HHL, phosphate buffer pH 6.8, 37 °C, mean ± SD, n = 3
Method: The method utilized here is a spectrophotometric method based on the commonly used method introduced by Cushman and Cheung (1971)[45]. The 5 ul of sample was preincubated with 45 ul of ACE enzyme (0.2 U/mL) in 100 mM Phosphate buffer (pH 6.8) and incubated for 10 min at 37 °C. Enzyme activity was assayed by monitoring the hydrolysis of hippuryl-L-histidyl-L-leucine (HHL). After adding 50 µL of a 5 mM HHL substrate solution, the increase in absorbance at 405 nm was measured every minute for 15 min at 37 °C using a 96-well microplate reader. The initial velocity was determined from the linear portion of the curve, and the inhibitory activity was expressed as a percentage calculated using the following equation:
% inhibition = (1-(B-b)/(A-a)) x 100,
where A is an initial velocity of the control reaction with enzyme (control), a is an initial velocity of the control reaction without enzyme (control blank), B is an initial velocity of the enzyme reaction with sample and b is an initial velocity of the reaction with sample but without enzyme (sample blank).

[9] = ABTS radical scavenging assay; assay type: physicochemical; conditions: peptide 100 µg/ml, 5 min in the dark, absorbance 750 nm, mean ± SD, n = 3
Method: Radical scavenging antioxidant activity was determined according to the ABTS radical scavenging activity following the method described by Re et al.[46] with slight modifications. Briefly, the solution of ABTS radical was prepared from the reaction between 7 mM ABTS (2,2-azino-bis (3-ethylbenzothiazoline-6-sulphonic acid) diammonium salt) and 2.45 mM ammonium persulphate. The resulting ABTS solution was diluted with distilled water to achieve an optical density of 0.7 at 750 nm. Then, a sample or standard of 10 µL was mixed with 190 µL of ABTS solution and incubated for 5 min in the dark. The absorbance was measured at 750 nm by a microplate reader (Rayto RT-2100 C, China). Ascorbic acid was used as the standard.

[10] = DPPH radical scavenging assay; assay type: physicochemical; conditions: peptide 100 µg/ml, 0.1 mM DPPH, 30 min in the dark, room temperature, absorbance 517 nm, mean ± SD, n = 3
Method: The DPPH radical scavenging activity of the sample was evaluated following the protocol by Muangrod et al.[48] with slight modifications. Briefly, 190 µL of 0.1 mM DPPH was mixed with 10 µL of the sample or standard ascorbic acid in each well and incubated at room temperature in the dark for 30 min. The absorbance of the mixture was measured at 517 nm using a microplate reader (Rayto RT-2100 C, China). Ascorbic acid was used as the standard. Results were expressed as micrograms ascorbic acid equivalent (µg AAE g^−1).

[11] = FRAP ferric ion-reducing antioxidant power assay; assay type: physicochemical; conditions: peptide 100 µg/ml, 30 min in the dark, absorbance 593 nm, mean ± SD, n = 3
Method: The ferric ion-reducing antioxidant power assay was analyzed according to the method by Rumpf et al.[47] with minor modifications. Briefly, the FRAP reagent was prepared from 300 mM sodium acetate (pH 3.6) and 10 mM TPTZ (2,4,6-tris (2-pyridyl)-s-triazine) in 40 mM HCl and 20 mM ferric chloride at the ratio of 10:1:1, respectively. Then, a 10 µL aliquot of the sample or standard was mixed with 190 µL of the FRAP reagent before incubating in the dark for 30 min. The absorbance was measured at 593 nm using a microplate reader (Rayto RT-2100 C, China). Ascorbic acid was used as the standard. Results were expressed as micrograms of ascorbic acid equivalent per gram (µg AAE g^−1).

Row | Substance | Inhibitory percentage, CaCO2 [1] [%] | Inhibitory percentage, HepG2 [2] [%] | Inhibitory percentage, MCF-7 ([3]; n = 3) [%] | Inhibitory percentage, NCI-H460 ([4]; n = 3, SD) [%] | Inhibitory percentage, SiHa [5] [%] | Inhibitory percentage, SW620 ([6]; n = 3, SD) [%] | Inhibitory percentage, Vero [7] [%] | Antihypertension (%), percentage inhibition of ACE ([8]; SD) [%] | Antioxidant, ABTS [9] | Antioxidant, DPPH [10] | Antioxidant, FRAP [11] | Inhibitory percentage, NCI-H460 ([4]; n = 3) [%] | Inhibitory percentage, SW620 ([6]; n = 3) [%] | Antihypertension (%), percentage inhibition of ACE [8] [%] | Inhibitory percentage, MCF-7 ([3]; n = 3, SD) [%]
1 | APANGSAF [RB-5] | 13.21±0.04 | 0 | 0 | 10.58±0.03 | 8.75±0.00 | 3.58±0.04 | 0 | 43.33±0.33 | 412.60±0.71 µg ascorbic acid equivalent | 374.62±13.56 µg ascorbic acid equivalent | 87.48±0.20 µg ascorbic acid equivalent |  |  |  | 
2 | DHPTGGL [RB-2] | 8.99±0.08 | 0 | 0 |  | 10.28±0.02 |  | 0 |  | 284.62±0.75 µg ascorbic acid equivalent | 239.10±0.83 µg ascorbic acid equivalent | 59.87±0.06 µg ascorbic acid equivalent | 0 | 0 | 0 | 
3 | GSEIRSTSDDVL [RB-4] | 11.27±0.07 | 0 | 0 | 6.08±0.01 | 11.45±0.00 |  | 0 | 13.33±0.60 | 539.58±3.43 µg ascorbic acid equivalent | 424.61±1.53 µg ascorbic acid equivalent | 128.47±0.86 µg ascorbic acid equivalent |  | 0 |  | 
4 | NLRKLKRL [RB-1] | 7.33±0.02 | 0 |  | 5.40±0.01 | 4.64±0.02 |  | 0 | 20.00±2.82 | 367.86±25.39 µg ascorbic acid equivalent | 373.74±12.01 µg ascorbic acid equivalent | 189.53±6.59 µg ascorbic acid equivalent |  | 0 |  | 2.10±0.00
5 | RGSKQRQKRQW [RB-7] | 5.73±0.02 | 0 | 0 | 1.74±0.01 | 8.78±0.08 | 1.47±0.01 | 0 | 60.00±1.29 | 507.53±13.49 µg ascorbic acid equivalent | 805.35±5.83 µg ascorbic acid equivalent | 187.50±1.88 µg ascorbic acid equivalent |  |  |  | 
6 | RRLRILL [RB-6] | 19.32±0.18 | 0 | 0 |  | 9.72±0.02 |  | 0 | 46.67±0.36 | 595.33±18.41 µg ascorbic acid equivalent | 584.66±4.15 µg ascorbic acid equivalent | 120.46±0.07 µg ascorbic acid equivalent | 0 | 0 |  | 
7 | SPTPPKNVPF [RB-3] | 7.88±0.08 | 0 | 0 |  | 12.36±0.02 |  | 0 | 20.00±1.02 | 274.73±0.27 µg ascorbic acid equivalent | 227.13±1.55 µg ascorbic acid equivalent | 58.05±0.09 µg ascorbic acid equivalent | 0 | 0 |  | 
